# Laboratory results as given in US6949528B1, “Compositions containing lysophosphatidic acids which inhibit apoptosis and uses thereof” (priority 1998, dated 2005).
# What was measured:
# Format in all cases: cell-based
# C3H/10T1/2 cells = assay: Anti-apoptotic activity assay: serum deprivation of C3H/10T1/2 cells
# Excerpt: In order to determine the […] of the claimed invention, the following method of analysis was used. The cell assay is described in detail in U.S. Pat. Nos. 5,637,486, 5,620,888, and 5,681,703, and Tomei et al. (1993) Proc Natl. Aci. 90:853-857. Briefly, mouse fibroblast C3H/10T1/2 cells (clone 8) were obtained from ATCC (Rockville, Md.) and were maintained in exponential growth phase in which the cell cycle is randomly distributed and no cells are arrested in G0, and in quiescence. Exponential growth phase was assured by seeding at 2000 cells per 1 ml (5 ml for 60 mm culture plate) five days prior to the beginning of the experiment. Assays were performed on cells only up to passage 15. At T=0, cultures were transferred to serum-free medium, as an appropriate stimulus, and seed extracts were added. Controls included 10^−7 and 5×10^−8 M 12-O-tetradecanoyl phorbol-13-acetate (TPA) to ensure the responsiveness of the cell culture. The samples were added to serum free medium and sterile filtered prior to addition to the cultures. Assays were performed in triplicate or quadruplicate. Analyses of the cell responses were made between 18 and 28 hours of serum deprivation. Two assays were performed on each cell culture plate consisting of differential cell counts.
# 1. All non-adherent or loosely adherent cells were removed from the culture dish and counted by appropriate techniques, typically counting by electronic particle counting instrument. These are the apoptotic cells, the serum deprived released cells (SDR), released by the action of cultivation in serum-free medium. Approximately 95% of these released cells are apoptotic as shown by both ultrastructure analysis and DNA fragmentation analysis.
# 2. The remaining adherent cells (ADH) were exposed to a buffered, typically pH 7.3, balanced salt solution such as a Hanks Balanced Salt Solution without calcium and magnesium salts containing 0.05% trypsin and 0.53 mM ethylene diaminetetraacetic acid (EDTA). Each culture was incubated at either room temperature or 37(C on a rocking platform to ensure uniform distribution of the trypsin reagent over the culture surface. After a standardized period of time, typically 10 minutes, the released cells were removed from each culture dish and measured by the same means as described above, typically electronic particle counting. This ADH cell count is comprised of both trypsin resistant and trypsin sensitive cells as described in U.S. Pat. Nos. 5,637,486, 5,620,888, and 5,681,703.
# Anti-apoptotic activity is expressed in the following examples as the calculated concentration of material ((g/ml of media) required to save 50% of the cells released on serum free treatment.
# The ability of 18:1-LPA an other LPAs to protect serum-starved cells from apoptotic death was measured using the C3H/10T1/2 cell assay, performed as described in Example 2. The effect of various compounds on the ability of lysophosphatidic acid to protect serum-starved cells from apoptotic death was also measured. Log phase cells were seeded in 60 mm Petri dishes at 175-350 cells per cm2 and maintained in Basal Medium Eagle (BME) supplemented with 10% Heat Inactivated Fetal Bovine Serum (HIFBS). On day 3 the cells were given fresh media. Treatment began on day 5 when the media containing serum was removed and replaced with the LPA mixture to be tested. After 24 hours of treatment, day 6, serum deprived released (SDR) cells (the […] cell population) and adherent (ADH) cells were separated and counted using an electronic cell counter (Coulter Corporation, Hialea, Fla.). […]
# [1] = system: rat neonatal cardiomyocytes; assay: Cardiomyocyte death induced by serum/glucose deprivation; conditions: serum/glucose deprivation
# Method: (§1) Cardiomyocytes were prepared from hearts of day-old Sprague Dawley rats by trypsinization and mechanical disaggregation (Simpson, (1985)) Circ. Res. 56:884-894. The cells were resuspended in MEM, 1×MEM vitamins (Gibco), 5% fetal bovine serum and 50 U/ml penicillin-G and pre-plated for 30 minutes to reduce contamination of non-myocytes. The non-adherent cardiac myocytes were separated and seeded in 2 ml in 35 mm dishes at a density of 3.5×10^5 viable cells per ml. The cells were allowed to adhere for 16-24 hours in a 37° C./5% CO2 humidified incubator.
# (§2) For serum deprivation, the medium was replaced with fresh serum-free RPMI, whereas serum/glucose deprivation was performed using glucose-free RPMI. The induction of cell death by adriamycin or C2-ceramide was accomplished by the addition of the agent prepared in serum-free RPMI. As a model of ischemia, cultures in serum and glucose free RPMI were placed in an airtight chamber and the latter was continuously perfused with oxygen-free gas overlay of 95% N2/5% CO2 for 8 hours at 37° C. To model reperfusion of the ischemic cells, 10% fetal bovine serum, 2 g/L of glucose were added and the cultures were returned to a normal oxygen gas overlay (37° C./5% CO2) in a humidified incubator for 16 hours.
# T investigate effects of LPA, LPA plus other phospholipids, PEG or their mixtures on cell death, various combinations of these components were added to cells in serum free medium at the beginning of cytotoxic treatment.
# (§3) Because cardiomyocytes are terminally differentiated non-dividing cells, viability was determined by measurement of the decrease in the relative number of adherent cells. […] Adherent cardiomyocytes were collected from culture dishes using 0.25% Trypsin/0.05% EDTA and counted on Coulter Counter ZM and Coulter Channelyzer 256.
# [2] = system: rat neonatal cardiomyocytes; assay: Cardiomyocyte death induced by ischemia and reperfusion; conditions: in mixture with PEG, FIG. 14
# Method: as §1
# as §2, with “To model reperfusion of the ischemic cells, 10% fetal bovine serum, 2 g/L of glucose were added and the cultures were returned to a normal oxygen gas overlay (37° C./5% CO2) in a humidified incubator for 16 hours.” left out
# as §3
# [3] = serum-deprived C3H/10T1/2 cells, 24 hours of treatment
compound,measurement,setting,value
"CCCCCCCC/C=C\CCCCCCCC(=O)OCC(O)COP(=O)(O)O (stereo not shown) [18:1 LPA, oleoyl-lysophosphatidic acid, reference compound]",cells protected,"C3H/10T1/2 cells; 0.75 (g/ml added together with PS, FIG. 2)",approximately 75%
same,cells protected,"C3H/10T1/2 cells; 1:1 PG:PC particles with 23.5% by weight 18:1-LPA, FIG. 3",about 57%
same,cells protected,"C3H/10T1/2 cells; 5 (M, FIG. 5), medium alone 30%",about 62%
same,cells protected,"C3H/10T1/2 cells; 5 (M, FIG. 6)",75%
same,cells protected,"C3H/10T1/2 cells; 15 (M, FIG. 6)",80%
same,efficacy,"C3H/10T1/2 cells; 18:1-LPA/PG particles with 5 to 10 mol % PE-PEG (2000 MW), FIG. 2",reduced efficacy
same,cells saved,"C3H/10T1/2 cells; 23.5 weight percent with PG, FIG. 3",about 50%
same,cells protected,"C3H/10T1/2 cells; 30% (by weight) mixture with 1:1 PA:PI, equivalent to Five Phospholipid Mixture at 10 (g/ml, FIG. 7), medium alone 38%",about 82%
same,cells protected from apoptosis,"C3H/10T1/2 cells; LPA equivalent to 10 (g/ml Five Phospholipid Mixture, 10% by weight with PG, FIG. 3)",approximately 65%
same,anti-apoptotic activity,C3H/10T1/2 cells; combined with BME (containing calcium) and filtered,appeared to be inhibited
same,anti-apoptotic activity,C3H/10T1/2 cells; combined with BSA in BME (containing calcium),preserved the anti-apoptotic activity
same,protection from apoptosis,C3H/10T1/2 cells; combined with polyethylene glycol or BSA,protects serum-deprived 10T1/2 cells from apoptosis
same,protection from serum deprivation-induced cell death,"C3H/10T1/2 cells; incorporated into PC, PC/PE-PEG, or PC/EtPC, FIG. 8",effective in protecting cells from serum deprivation-induced cell death
same,cells protected,"C3H/10T1/2 cells; incorporated into phosphatidyl glycerol (PG), FIG. 2",up to 90%
same,Concentration for Max Effect,C3H/10T1/2 cells; [3],10 µM
same,Maximum effect relative to 18:1 LPA,C3H/10T1/2 cells; [3],100%
same,Concentration ranges for cardiomyocyte protection,[1],0.3 to 10 µM
same,Maximum effect relative to 18:1 LPA in cardiomyocytes,[1],100%
same,protection against cardiomyocyte death,[2],equally protect
